Experimental data: patent US10004711B2, “Methods and compositions comprising 10-hydroxy-2-decenoic acid” (DSM IP ASSETS B.V., priority 2014, dated 2018)

Legend:
older male rats = assay: Learning acquisition, Barnes maze task; type: in vivo, rat; conditions: for Escape Latency: average of two trial runs
Protocol: The dose-response characteristics of 10-Hydroxy-2-decenoic acid's (QBA's) potential brain health benefits during aging were assessed for cognitive performance in older male rats (16-17 months old; N=10-12 per group). Rats were fed QBA for 4-5 months prior to behavioral assessment. Spatial learning and memory performance was tested using the Barnes circular maze which consists of a 4-ft diameter, gray circular platform raised 90 cm above the floor level with 20 holes, 10 cm in diameter, evenly spaced around the circumference. Animals were trained to locate a black escape tunnel beneath one of the holes in response to aversive light stimuli. The latency to enter the escape box in each of two trials across four trial days was recorded. Shorter latencies across and within trial days is an indication of better cognitive performance.

[1] = system: Human peripheral blood mononuclear cells (PBMC); assay: Proliferation of PBMC after αCD3/CD28 stimulation; type: cell-based; conditions: for Cell Numbers: 72 h
Protocol: Human peripheral blood mononuclear cells (PBMC) were pre-treated with 10-Hydroxy-2-decenoic acid (QBA) for 1 hour prior to stimulation with αCD3/CD28. After 72 hours of incubation, cell number was assessed by Cell Titer Glow.

histone deacetylases = conditions: Spannhoff et al. 2011; cited from earlier work
[2] = Weight management in mice, colitis-related disease state (cell transfer insult); type: in vivo, mouse; conditions: for % Original Wt: Diseased + QBA 60 mg/kg body weight/day
Protocol: Mice (45 days of age) were fed 60 mg/kg body weight/day QBA (equivalent to 24 mg/kg/d in rats; HED of ˜240 mg/day, N=10) or a control diet (N=15) for 28 days. […] After 28 days, all 10 of the mice fed QBA and 10 of the 15 control mice were subjected to a cell transfer insult wherein the mice were considered to be in a colitis-related disease state. The undiseased controls (N=5) and the diseased controls (N=10) continued on their control diets, and the diseased QBA-fed animals continued on their QBA diets (60 mg/kg body weight/day QBA), for an additional 49 days.

[3] = Townsend et al. 1960; Izuta et al. 2009; cited from earlier work
[4] = system: Neurons from the brain's hippocampus; assay: Glutamate toxicity, cell death (propidium iodide); type: cell-based, rat; conditions: for Cell Death (% Control): glutamate 25 μM 24 h
Protocol: Neurons from the brain's hippocampus were derived from E17 pups and incubated for 7 days. The cells were pre-treated with QBA for 48 hours and subsequently challenged with glutamate (25 μM) for 24 hours. The cultures were then stained with propidium iodide, a marker of cell death, and with tetramethylrhodamine ethyl ester (TMRE), a marker for mitochondrial health. The fluorescence of each of these markers was then quantitated with a fluorimeter.

[5] = system: RAW264.7 mouse macrophage cell line; assay: IL-1β levels after LPS stimulation; type: cell-based; conditions: for IL-1β (pg/mL)/Cell Numbers: 24 h
Protocol: Cultures of the RAW264.7 mouse macrophage cell line were pre-treated with 10-Hydroxy-2-decenoic acid (QBA) for 1 hour prior to stimulation with lipopolysaccharide (LPS, 100 ng/mL). After 24 hours of incubation, interleukin […] (IL-1β) and tumor necrosis factor-α (TNFα) levels were determined by Luminex technology and cell numbers were measured using Alamar Blue. Results are given as a ratio of cytokine concentration/cell number.

older rats = assay: Elevated plus-maze, older rats fed QBA; type: in vivo, rat; conditions: for Time (s) in Open Arm: rats 18 months old, 5-min test
Protocol: The dose-response characteristics of 10-Hydroxy-2-decenoic acid's (QBA's) potential brain health benefits during aging were assessed for mood in older rats (18-20 months old).
Rats were fed QBA and subjected to an elevated plus-maze. The elevated plus-maze was elevated ˜85 cm above the floor and consisted of two open and two closed arms of the same size (50×10 cm). The closed arms were surrounded by walls 40 cm high, and the arms were constructed of black acrylic slabs that radiated from a central platform (10×10 cm) to form a plus sign. Each rat was placed in the central platform facing one of the open arms, and its behavior was recorded during a 5-min testing period with video capture software. More time spent in the open arms is an indication of reduced anxiety-like state. Rats were tested at 18 months old (N=11-13 per group).

Q: Which results are given for `O=C(O)C=CCCCCCCCO` [QBA, 10-Hydroxy-2-decenoic acid]?
A: Escape Latency (older male rats; QBA 0.4 mg/kg/day, trial day 1): 98.8 s; Escape Latency (older male rats; QBA 0.4 mg/kg/day, trial day 2): 63.4 s; Escape Latency (older male rats; QBA 0.4 mg/kg/day, trial day 3): 63.4 s; Escape Latency (older male rats; QBA 0.4 mg/kg/day, trial day 4): 24.7 s; Escape Latency (older male rats; QBA 4 mg/kg/day, trial day 1): 106.7 s; Escape Latency (older male rats; QBA 4 mg/kg/day, trial day 2): 43.4 s; Escape Latency (older male rats; QBA 4 mg/kg/day, trial day 3): 43.4 s; Escape Latency (older male rats; QBA 4 mg/kg/day, trial day 4): 23.6 s; Escape Latency (older male rats; QBA 12 mg/kg/day, trial day 1): 79.3 s; Escape Latency (older male rats; QBA 12 mg/kg/day, trial day 2): 30.7 s; Escape Latency (older male rats; QBA 12 mg/kg/day, trial day 3): 30.7 s; Escape Latency (older male rats; QBA 12 mg/kg/day, trial day 4): 24.3 s; Escape Latency (older male rats; QBA 24 mg/kg/day, trial day 1): 109.8 s; Escape Latency (older male rats; QBA 24 mg/kg/day, trial day 2): 48.4 s; Escape Latency (older male rats; QBA 24 mg/kg/day, trial day 3): 48.4 s; Escape Latency (older male rats; QBA 24 mg/kg/day, trial day 4): 34.3 s; speed of learning acquisition (Barnes maze task) (older male rats; male rats aged 16-17 months): increased the speed of learning acquisition; Cell Numbers ([1]; QBA 50 μM 1 h before αCD3/CD28): 517020; Cell Numbers ([1]; QBA 100 μM 1 h before αCD3/CD28): 472678; Cell Numbers ([1]; QBA 500 μM 1 h before αCD3/CD28): 442008; Cell Numbers ([1]; QBA 1000 μM 1 h before αCD3/CD28): 344026; Cell Numbers ([1]; QBA 2500 μM 1 h before αCD3/CD28): 104291; Cell Numbers ([1]; QBA 5000 μM 1 h before αCD3/CD28): 1601; concentrations that reduced the proliferation of human immune cells ([1]; summary of Table 11): greater than 500 μM; histone deacetylase inhibition (histone deacetylases): inhibits histone deacetylases; % Original Wt ([2]; day 0): 0.00%; % Original Wt ([2]; day 3): 1.93%; % Original Wt ([2]; day 7): 5.33%; % Original Wt ([2]; day 10): 9.91%; % Original Wt ([2]; day 14): 9.09%; % Original Wt ([2]; day 17): 9.10%; % Original Wt ([2]; day 21): 12.60%; % Original Wt ([2]; day 24): 15.47%; % Original Wt ([2]; day 28* (cell transfer insult after 28 days)): 16.19%; % Original Wt ([2]; day 31): 18.82%; % Original Wt ([2]; day 35): 20.65%; % Original Wt ([2]; day 38): 19.66%; % Original Wt ([2]; day 42): 21.27%; % Original Wt ([2]; day 45): 22.86%; % Original Wt ([2]; day 49): 24.04%; % Original Wt ([2]; day 52): 24.05%; % Original Wt ([2]; day 56): 22.29%; % Original Wt ([2]; day 59): 21.83%; % Original Wt ([2]; day 63): 23.89%; % Original Wt ([2]; day 66): 22.42%; % Original Wt ([2]; day 70): 22.95%; % Original Wt ([2]; day 73): 21.96%; % Original Wt ([2]; day 77): 20.56%; weight of mice in a diseased state versus undiseased controls ([2]; QBA 60 mg/kg body weight/day, colitis-related disease state): maintained their weight similar to the undiseased control mice; percentage increase in body weight versus control diet ([2]; QBA 60 mg/kg body weight/day, first 28 days, before insult): greater percentage increase in body weight; in vitro antitumor activity [3]: antitumor activity; Cell Death (% Control) ([4]; QBA 0.10 μM pre-treatment 48 h): 92.52 % Control; Cell Death (% Control) ([4]; QBA 0.30 μM pre-treatment 48 h): 90.43 % Control; Cell Death (% Control) ([4]; QBA 1.00 μM pre-treatment 48 h): 88.78 % Control; Cell Death (% Control) ([4]; QBA 3.00 μM pre-treatment 48 h): 94.07 % Control; Cell Death (% Control) ([4]; QBA 10.00 μM pre-treatment 48 h): 92.78 % Control; Cell Death (% Control) ([4]; QBA 30.00 μM pre-treatment 48 h): 90.69 % Control; Cell Death (% Control) ([4]; QBA 100.00 μM pre-treatment 48 h): 91.76 % Control; cell death after glutamate toxicity ([4]; summary of Table 2): decreased cell death; IL-1β (pg/mL)/Cell Numbers ([5]; QBA 50 μM 1 h before LPS 100 ng/mL): 0.00386 (pg/mL)/Cell Numbers; IL-1β (pg/mL)/Cell Numbers ([5]; QBA 100 μM 1 h before LPS 100 ng/mL): 0.00402 (pg/mL)/Cell Numbers; IL-1β (pg/mL)/Cell Numbers ([5]; QBA 500 μM 1 h before LPS 100 ng/mL): 0.00242 (pg/mL)/Cell Numbers; IL-1β (pg/mL)/Cell Numbers ([5]; QBA 1000 μM 1 h before LPS 100 ng/mL): 0.00242 (pg/mL)/Cell Numbers; IL-1β (pg/mL)/Cell Numbers ([5]; QBA 2500 μM 1 h before LPS 100 ng/mL): 0.00097 (pg/mL)/Cell Numbers; IL-1β (pg/mL)/Cell Numbers ([5]; QBA 5000 μM 1 h before LPS 100 ng/mL): 0.00067 (pg/mL)/Cell Numbers; production of IL-1β in immune cells ([5]; summary of Table 9): reduced the production; Time (s) in Open Arm (older rats; QBA 0.4 mg/kg/day): 48.5 s; Time (s) in Open Arm (older rats; QBA 4 mg/kg/day): 52.2 s; Time (s) in Open Arm (older rats; QBA 12 mg/kg/day): 37.1 s; anxiety as measured by the time in the open arms of the elevated plus maze (older rats; QBA 24 mg/kg/d, 15-18-month old male rats): decreased anxiety; Time (s) in Open Arm (older rats; QBA 24 mg/kg/day): 69.8 s
